The structures appear in SMILES notation.

The values that follow come from US9926324B2, “Heteroaromatic compounds as PI3 kinase modulators and methods of use” (Calitor Sciences, LLC, priority 2012, dated 2018).

Data set [1] is described as follows: Pharmacokinetic profiles in dogs after intravenous and oral administration. It is filed as in vivo. The note with it: Dog; for F: iv dose 1 mg/kg, oral dose generally 10 mg/kg; for Clearance (CL) / AUC(0-t) / half-life / Vd: iv dosing 1 mg/kg; for AUC(0-t) / half-life / Vd: plasma; for Vd: read-out: Vss. The method, then:
(§1) The compounds disclosed herein are assessed in pharmacokinetic studies in mice, rats, dogs or monkeys. The compounds are administered as a water solution, 2% HPMC+1% TWEEN® 80 in water solution, 5% DMSO+5% solutol in saline, 4% MC suspension or capsule. For the intravenous administration, the animals are generally given at 1 or 2 mg/kg dose. For the oral (p.o.) dosing, mice and rats are generally given 5 or 10 mg/kg dose, and dogs and monkeys are generally given 10 mg/kg dose. The blood samples (0.3 mL) are drawn at 0.25, 0.5, 1.0, 2.0, 3.0, 4.0, 6.0, 8.0, 12 and 24 h time points or 0.083, 0.25, 0.5, 1.0, 2.0, 4.0, 6.0, 8.0 and 24 h time points and centrifuged at 3,000 or 4000 rpm for 2 to 10 min. The plasma solutions are collected, stored at −20° C. or −70° C. until analyzed by LC/MS/MS as described above.

Data set [2] can be described thus: Pharmacokinetic profiles in mice after intravenous and oral administration. The class given is in vivo. The note with it: Mouse; for F: oral dose generally 5 or 10 mg/kg; for AUC(0-t) / half-life / Vd: plasma; for Vd: read-out: Vss. The method, then:
as §1

The target of a further data set is T1, PI3K p110β/p85α (h) (Homo sapiens, UniProt P42338).
T1 construct: purchased Millipore UK Ltd (assay service)
The experiment in a line: PI3K p110β/p85α (h) non-radioactive HTRF assay. It is filed as biochemical. As to the method:
(§2) PI3K (p110β/p85α) (h) is incubated in assay buffer containing 10 μM phosphatidylinositol-4,5-bisphosphate and MgATP (concentration as required). The reaction is initiated by the addition of the MgATP mix. After incubation for 30 minutes at room temperature, the reaction is stopped by the addition of stop solution containing EDTA and biotinylated phosphatidylinositol-3,4,5-trisphosphate. Finally, detection buffer is added, which contains europium-labelled anti-GST monoclonal antibody, GST-tagged GRP1 PH domain and streptavidin-allophycocyanin. The plate is then read in timeresolved fluorescence mode and the homogenous time-resolved fluorescence (HTRF) signal is determined according to the formula HTRF=10000×(Em665 nm/Em620 nm).
(§3) The kinase assays described herein were performed at Millipore UK Ltd, Dundee Technology Park, Dundee DD2 1SW, UK.

Data set [3] in a line: Compound stability in human liver microsomes. It is filed as in vitro ADME. The note with it: for Human T1/2 / half-life at 5 μM: human liver microsomes 0.5 mg protein/mL, compound 5 μM, NADPH 1.0 mM, 37° C.; for half-life at 5 μM / CLint scaled at 5 μM: pH 7.4; for half-life at 5 μM: read-out: Human T1/2; for CLint scaled at 5 μM: human liver microsomes, in vivo CLint extrapolated. In short, it runs like this:
(§4)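 Compounds at 5 μM were incubated with human or rat liver microsomes (0.5 mg protein/mL) and 1.0 mM NADPH in 100 mM phosphate pH 7.4 (0.05% DMSO) at 37 °C, sampled 0–60 min. Remaining parent, quantified by LC/MS/MS as % of zero time, gave extrapolated CLint.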

For a further data set, the target named is T2, PI3K (p110δ/p85α) (h) (Homo sapiens, UniProt O00329).
T2 construct: purchased Millipore UK Ltd (assay service)
The experiment in a line: PI3K p110δ/p85α (h) non-radioactive HTRF assay. The class given is biochemical. As to the method: as §2, with “(p110δ/p85α)” for “(p110β/p85α)”
as §3

Data set [4] can be described thus: Pharmacokinetic profiles in rats after intravenous and oral administration. The class given is in vivo. The note with it: for F: oral dose generally 5 or 10 mg/kg; for AUC(0-t) / half-life / Vd: rat, plasma; for Vd: read-out: Vss. In outline:
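Mice, rats, dogs or monkeys dosed i.v. at 1 or 2 mg/kg, or orally at 5 or 10 mg/kg (rodents) or 10 mg/kg (dogs, monkeys), as solution, suspension or capsule. Plasma sampled from 0.083 or 0.25 h up to 24 h, analysed by LC/MS/MS.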

Data set [5] can be described thus: Compound stability in rat liver microsomes. It is filed as in vitro ADME. The note with it: for Rat T1/2 / half-life at 5 μM: rat liver microsomes 0.5 mg protein/mL, compound 5 μM, NADPH 1.0 mM, 37° C.; for half-life at 5 μM / CLint scaled at 5 μM: pH 7.4; for half-life at 5 μM: read-out: Rat T1/2; for CLint scaled at 5 μM: rat liver microsomes, in vivo CLint extrapolated. In short, it runs like this:
as §4

The target in another data set is T3, PI3K p110α/p85α (h) (Homo sapiens, UniProt P42336).
T3 construct: purchased Millipore UK Ltd (assay service)
The experiment in a line: PI3K p110α/p85α (h) non-radioactive HTRF assay. It is filed as biochemical. In short, it runs like this: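 Human p110α/p85α incubated 30 min at room temperature with 10 μM PIP2 and MgATP, reaction started by ATP. Stopped with EDTA plus biotinylated PIP3; PIP3 detected by HTRF (Eu anti-GST, GST-GRP1 PH domain, streptavidin-APC), signal = 10000×(Em665/Em620).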

T1 sequence (P42338 whole entry): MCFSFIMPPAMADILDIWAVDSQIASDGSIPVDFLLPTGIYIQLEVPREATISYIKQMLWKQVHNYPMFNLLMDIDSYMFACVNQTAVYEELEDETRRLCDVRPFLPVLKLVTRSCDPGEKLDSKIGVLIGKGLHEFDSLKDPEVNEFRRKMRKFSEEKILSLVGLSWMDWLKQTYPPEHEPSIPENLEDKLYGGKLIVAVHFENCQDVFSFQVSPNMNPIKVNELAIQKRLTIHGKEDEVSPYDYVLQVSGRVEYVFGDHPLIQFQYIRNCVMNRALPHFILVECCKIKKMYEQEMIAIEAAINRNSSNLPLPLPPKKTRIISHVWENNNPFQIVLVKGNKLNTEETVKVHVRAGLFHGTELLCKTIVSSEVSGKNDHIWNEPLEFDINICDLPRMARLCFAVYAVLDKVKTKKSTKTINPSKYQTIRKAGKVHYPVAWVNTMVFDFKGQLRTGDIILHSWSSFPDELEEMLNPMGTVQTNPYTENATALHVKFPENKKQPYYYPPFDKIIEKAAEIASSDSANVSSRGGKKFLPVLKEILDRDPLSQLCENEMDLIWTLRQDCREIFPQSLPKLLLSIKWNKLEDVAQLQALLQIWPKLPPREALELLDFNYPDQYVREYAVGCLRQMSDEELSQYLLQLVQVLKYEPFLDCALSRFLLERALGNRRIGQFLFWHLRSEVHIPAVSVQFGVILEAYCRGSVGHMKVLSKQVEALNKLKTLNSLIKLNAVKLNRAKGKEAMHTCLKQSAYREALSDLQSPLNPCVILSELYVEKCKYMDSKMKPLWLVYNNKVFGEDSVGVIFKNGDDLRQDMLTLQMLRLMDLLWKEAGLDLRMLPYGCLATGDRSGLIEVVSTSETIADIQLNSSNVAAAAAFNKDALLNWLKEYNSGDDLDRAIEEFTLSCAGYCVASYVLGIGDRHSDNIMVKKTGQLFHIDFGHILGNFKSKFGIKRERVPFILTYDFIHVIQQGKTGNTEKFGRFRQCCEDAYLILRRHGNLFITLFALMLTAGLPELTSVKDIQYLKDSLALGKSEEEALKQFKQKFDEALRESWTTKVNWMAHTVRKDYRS
T1 sequence (P27986 whole entry partner): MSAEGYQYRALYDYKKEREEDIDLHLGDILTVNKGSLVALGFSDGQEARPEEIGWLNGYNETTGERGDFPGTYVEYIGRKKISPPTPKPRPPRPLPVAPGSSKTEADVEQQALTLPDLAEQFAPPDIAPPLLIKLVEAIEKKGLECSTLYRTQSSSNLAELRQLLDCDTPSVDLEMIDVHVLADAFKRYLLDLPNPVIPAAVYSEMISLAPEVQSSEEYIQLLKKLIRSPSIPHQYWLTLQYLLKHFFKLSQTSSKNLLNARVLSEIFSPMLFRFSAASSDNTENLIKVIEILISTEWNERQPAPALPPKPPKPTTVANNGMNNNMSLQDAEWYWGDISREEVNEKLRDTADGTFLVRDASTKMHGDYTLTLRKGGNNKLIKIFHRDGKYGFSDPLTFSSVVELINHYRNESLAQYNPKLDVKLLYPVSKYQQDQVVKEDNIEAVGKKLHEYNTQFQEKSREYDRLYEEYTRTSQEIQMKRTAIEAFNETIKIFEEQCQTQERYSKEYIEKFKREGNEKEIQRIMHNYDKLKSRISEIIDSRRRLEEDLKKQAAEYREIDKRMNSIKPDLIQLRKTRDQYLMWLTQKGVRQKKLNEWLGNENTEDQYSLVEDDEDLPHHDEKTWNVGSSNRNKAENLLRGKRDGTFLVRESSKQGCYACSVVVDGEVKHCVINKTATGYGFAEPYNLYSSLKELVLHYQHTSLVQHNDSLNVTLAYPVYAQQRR
T3 sequence (P42336 whole entry): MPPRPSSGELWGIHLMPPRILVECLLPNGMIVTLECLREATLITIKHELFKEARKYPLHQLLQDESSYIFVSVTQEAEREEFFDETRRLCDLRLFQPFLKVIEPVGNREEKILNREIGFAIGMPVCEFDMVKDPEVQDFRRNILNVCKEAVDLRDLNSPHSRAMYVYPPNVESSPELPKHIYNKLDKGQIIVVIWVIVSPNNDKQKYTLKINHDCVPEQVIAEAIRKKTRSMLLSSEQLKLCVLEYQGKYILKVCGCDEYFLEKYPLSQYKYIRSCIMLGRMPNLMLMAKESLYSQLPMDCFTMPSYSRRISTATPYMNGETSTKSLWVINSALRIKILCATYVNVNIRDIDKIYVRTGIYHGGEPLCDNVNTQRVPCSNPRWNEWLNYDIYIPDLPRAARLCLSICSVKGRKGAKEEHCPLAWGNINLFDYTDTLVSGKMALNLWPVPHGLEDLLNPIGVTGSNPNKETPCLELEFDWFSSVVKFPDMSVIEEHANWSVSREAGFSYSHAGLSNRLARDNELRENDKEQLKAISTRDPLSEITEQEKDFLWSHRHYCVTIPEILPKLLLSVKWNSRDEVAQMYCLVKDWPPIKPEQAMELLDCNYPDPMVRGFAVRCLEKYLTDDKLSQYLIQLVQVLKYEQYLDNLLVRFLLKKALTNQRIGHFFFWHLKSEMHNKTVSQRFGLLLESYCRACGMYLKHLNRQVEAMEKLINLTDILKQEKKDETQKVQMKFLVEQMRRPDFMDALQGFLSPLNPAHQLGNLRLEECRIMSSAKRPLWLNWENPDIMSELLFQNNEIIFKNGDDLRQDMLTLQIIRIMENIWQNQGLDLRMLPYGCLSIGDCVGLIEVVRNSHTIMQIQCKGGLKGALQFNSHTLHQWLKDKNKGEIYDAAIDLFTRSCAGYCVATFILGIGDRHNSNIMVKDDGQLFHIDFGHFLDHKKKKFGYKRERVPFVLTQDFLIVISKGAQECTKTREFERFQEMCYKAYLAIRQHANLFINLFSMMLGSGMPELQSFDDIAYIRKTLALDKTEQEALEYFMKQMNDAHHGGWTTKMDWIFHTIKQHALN
T3 sequence (P27986 whole entry partner): as the sequence (P27986 whole entry partner) above
T2 sequence (O00329 whole entry): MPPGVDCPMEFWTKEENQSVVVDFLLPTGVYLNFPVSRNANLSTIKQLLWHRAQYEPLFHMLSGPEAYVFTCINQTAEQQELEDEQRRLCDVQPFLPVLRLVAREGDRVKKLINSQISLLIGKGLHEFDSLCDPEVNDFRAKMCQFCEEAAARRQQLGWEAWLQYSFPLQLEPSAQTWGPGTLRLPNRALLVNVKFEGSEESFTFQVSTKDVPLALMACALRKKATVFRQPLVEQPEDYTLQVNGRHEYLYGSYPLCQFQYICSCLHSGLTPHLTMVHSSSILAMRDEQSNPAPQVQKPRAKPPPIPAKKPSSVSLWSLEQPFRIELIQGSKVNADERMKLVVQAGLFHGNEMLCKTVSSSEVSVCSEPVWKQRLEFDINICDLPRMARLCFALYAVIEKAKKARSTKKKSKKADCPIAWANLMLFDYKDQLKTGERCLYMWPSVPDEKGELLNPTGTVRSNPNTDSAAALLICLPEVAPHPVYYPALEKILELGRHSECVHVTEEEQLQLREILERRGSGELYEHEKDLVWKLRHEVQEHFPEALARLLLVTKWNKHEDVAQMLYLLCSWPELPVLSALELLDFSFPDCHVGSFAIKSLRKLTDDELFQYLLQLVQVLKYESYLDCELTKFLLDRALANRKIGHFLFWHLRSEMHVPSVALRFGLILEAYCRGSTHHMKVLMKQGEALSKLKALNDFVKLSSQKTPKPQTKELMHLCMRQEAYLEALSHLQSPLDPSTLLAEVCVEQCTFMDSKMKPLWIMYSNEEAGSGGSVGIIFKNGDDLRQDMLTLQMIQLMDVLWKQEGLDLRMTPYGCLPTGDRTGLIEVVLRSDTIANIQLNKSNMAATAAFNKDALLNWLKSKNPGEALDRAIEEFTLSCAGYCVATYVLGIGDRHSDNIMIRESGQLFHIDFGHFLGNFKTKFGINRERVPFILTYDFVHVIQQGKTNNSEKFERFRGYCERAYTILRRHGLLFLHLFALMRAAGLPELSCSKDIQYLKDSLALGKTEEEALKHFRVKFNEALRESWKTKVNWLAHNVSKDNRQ
T2 sequence (P27986 whole entry partner): as the sequence (P27986 whole entry partner) above

Turning to `COc1ncc(-c2ccc3ncc(C#CCO)n3n2)cc1NS(=O)(=O)c1ccc(F)cc1F` [Ex. 9, 2,4-difluoro-N-(5-(3-(3-hydroxyprop-1-yn-1-yl)imidazo[1,2-b]pyridazin-6-yl)-2-methoxypyridin-3-yl)benzenesulfonamide], the F in data set [1] is on record as 44.2%; in data set [2] (iv dose 2 mg/kg), 118.7%; in data set [4] (iv dose 1 mg/kg), 104.2%. In addition, the “Clearance (CL)” value in data set [1] turned out to be 6.17 mL/min/kg. The AUC(0-t) in data set [1] turned out to be 2750 ng·h/mL; in data set [2] (iv dosing 2 mg/kg), 5330 ng·h/mL; in data set [4] (iv dosing 1 mg/kg), 7490 ng·h/mL. Besides, the half-life in data set [1] was 0.73 h; in data set [2] (iv dosing 2 mg/kg) it was 4.02 h; in data set [4] (iv dosing 1 mg/kg), 4.1 h. Also, the Vd in data set [1] stood at 0.31 L/kg; in data set [2] (iv dosing 2 mg/kg), 0.57 L/kg; in data set [4] (iv dosing 1 mg/kg) it was 0.37 L/kg. Also, the Cl/F was determined as 6.17 mL/min/kg in data set [2] (iv dosing 2 mg/kg) and 2.33 mL/min/kg in data set [4] (iv dosing 1 mg/kg). Further, the IC50 worked out at 38 nM on PI3K p110β/p85α (h), 2 nM at PI3K (p110δ/p85α) (h) and 2 nM on PI3K p110α/p85α (h). Moreover, the “Human T1/2” value in data set [3] is given as “∞”. In addition, in data set [5], the “Rat T1/2” value was “∞”.

For `COc1ncc(-c2ccc3ncc(C#CCO)n3c2)cc1NS(=O)(=O)c1ccc(F)cc1F` [Ex. 15, 2,4-difluoro-N-(5-(3-(3-hydroxyprop-1-yn-1-yl)imidazo[1,2-a]pyridin-6-yl)-2-methoxypyridin-3-yl)benzenesulfonamide], the figures for the F in data set [1], in data set [2] (iv dose 1 mg/kg) and in data set [4] (iv dose 2 mg/kg) were 108.5%, 116.9% and 97.0%, respectively. In addition, in data set [1], the “Clearance (CL)” value worked out at 7.67 mL/min/kg. In addition, the AUC(0-t) in data set [1] turned out to be 2170 ng·h/mL; in data set [2] (iv dosing 1 mg/kg), 20000 ng·h/mL; in data set [4] (iv dosing 2 mg/kg), 25600 ng·h/mL. For the same compound, the values for the half-life in data set [1], in data set [2] (iv dosing 1 mg/kg) and in data set [4] (iv dosing 2 mg/kg) were 0.74 h, 2.83 h and 3.14 h, respectively. Also, the Vd in data set [1] is 0.37 L/kg; in data set [4] (iv dosing 2 mg/kg), 0.22 L/kg. For the same compound, the results for the IC50 at PI3K p110β/p85α (h), on PI3K (p110δ/p85α) (h) and at PI3K p110α/p85α (h) were 27 nM, 1 nM and 2 nM, respectively. Further, the half-life at 5 μM in data set [3] came out at 8.39 h; in data set [5], 2.01 h. Moreover, the results for the CLint scaled at 5 μM in data set [3] and in data set [5] were 3.45 mL/min/kg and 20.6 mL/min/kg, respectively. This compound registered a Cl/F in data set [4] (iv dosing 2 mg/kg) of 1.3 mL/min/kg.

For the compound `COc1ncc(-c2ccc3ncc(C#CC(C)O)n3c2)cc1NS(=O)(=O)c1ccc(F)cc1F` (stereo not drawn) [Ex. 16, 2,4-difluoro N (5 (3 (3 hydroxybut-1-yn-1-yl)imidazo[1,2-a]pyridin-6-yl)-2-methoxypyridin-3-yl)benzenesulfonamide], the IC50 at PI3K p110β/p85α (h) was 66 nM. Besides, in data set [3], the half-life at 5 μM was 5.22 h and the intrinsic metabolic clearance (CLint scaled) at 5 μM is 5.55 mL/min/kg. Moreover, the IC50 on PI3K (p110δ/p85α) (h) worked out at 3 nM. This compound also displayed a F in data set [4] (iv dose 1 mg/kg) of 99.77%. For the same compound, in data set [4] (iv dosing 1 mg/kg), the Cl/F stood at 1.67 mL/min/kg, the area under the curve AUC(0-t) came to 19400 ng·h/mL, the half-life was 2.65 h and the Vd amounted to 0.35 L/kg. In addition, in data set [5], the half-life at 5 μM stood at 0.894 h and the intrinsic metabolic clearance (CLint scaled) at 5 μM is 46.3 mL/min/kg. Further, at PI3K p110α/p85α (h), the IC50 is 2 nM.

Regarding `COc1ncc(-c2ccc3ncc(C#N)n3n2)cc1NS(=O)(=O)c1ccc(F)cc1F` [Ex. 24, N-(5-(3-cyanoimidazo[1,2-b]pyridazin-6-yl)-2-methoxypyridin-3-yl)-2,4-difluorobenzenesulfonamide], the F in data set [1] came out at 108.5%; in data set [2] (iv dose 2 mg/kg), 72.6%; in data set [4] (iv dose 2 mg/kg) it was 108%. The “Clearance (CL)” value in data set [1] came out at 9 mL/min/kg. The AUC(0-t) came to 1840 ng·h/mL in data set [1], 96100 ng·h/mL in data set [2] (iv dosing 2 mg/kg) and 8400 ng·h/mL in data set [4] (iv dosing 2 mg/kg). The half-life in data set [1] is 0.57 h; in data set [2] (iv dosing 2 mg/kg), 5.25 h; in data set [4] (iv dosing 2 mg/kg), 3.06 h. Moreover, the Vd in data set [1] was found to be 0.37 L/kg; in data set [2] (iv dosing 2 mg/kg), 0.14 L/kg; in data set [4] (iv dosing 2 mg/kg), 0.55 L/kg. In addition, the Cl/F worked out at 0.33 mL/min/kg in data set [2] (iv dosing 2 mg/kg) and 4 mL/min/kg in data set [4] (iv dosing 2 mg/kg). The IC50 on PI3K p110β/p85α (h) worked out at 26 nM; on PI3K (p110δ/p85α) (h), 3 nM; on PI3K p110α/p85α (h), 2 nM. Besides, in data set [3], the “Human T1/2” value is “∞”. The “Rat T1/2” value in data set [5] was “∞”.
